Holding throughout (format): cell-based
One test concerns the target T1, AKT2 (Homo sapiens, UniProt P31751).
T1 construct: expressed in transfected cells; host or cells: HEK293
The test can be described thus: Live cell AKT2 target engagement by NanoBRET competitive probe displacement. As to conditions: HEK293 cells transfected with kinase-NanoLuciferase fusion, 2 h at 37° C. The gist of the method:
(§1)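 IC50 reflects displacement of a fluorescent ATP-competitive tracer, dosed near its EC50, from kinase–NanoLuciferase fusions in live HEK293 cells. Cells were incubated with compound and tracer for 2 h at 37 °C, then E600/E460 BRET was read.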
In general terms: BRET reads energy transfer from a luciferase to a nearby fluorophore.

The target in the next test is T2, AKT1 WT (Homo sapiens, UniProt P31749).
T2 construct: expressed in transfected cells; host or cells: HEK293
T2 sequence (P31749 whole entry): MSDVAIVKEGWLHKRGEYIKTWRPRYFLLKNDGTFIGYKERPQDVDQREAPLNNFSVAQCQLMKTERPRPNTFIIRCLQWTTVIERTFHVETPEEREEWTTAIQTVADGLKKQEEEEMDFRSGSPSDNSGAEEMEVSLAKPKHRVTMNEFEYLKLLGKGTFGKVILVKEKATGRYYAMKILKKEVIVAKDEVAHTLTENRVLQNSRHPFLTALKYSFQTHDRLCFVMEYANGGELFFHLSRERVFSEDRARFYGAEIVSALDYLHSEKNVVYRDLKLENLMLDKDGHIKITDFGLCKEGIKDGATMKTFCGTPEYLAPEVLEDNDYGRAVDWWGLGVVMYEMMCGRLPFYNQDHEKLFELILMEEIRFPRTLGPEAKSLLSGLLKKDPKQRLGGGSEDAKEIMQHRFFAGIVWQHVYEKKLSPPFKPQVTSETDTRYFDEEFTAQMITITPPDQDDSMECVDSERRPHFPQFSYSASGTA
The test can be described thus: Live cell AKT1 WT target engagement by NanoBRET competitive probe displacement. As to conditions: HEK293 cells transfected with kinase-NanoLuciferase fusion, 2 h at 37° C. The gist of the method: as §1

The subject of test [1] is LAPC4 prostate cancer cells. Briefly: Antiproliferative effects in LAPC4 cells (CellTiter Glo). The following applies: LAPC4 cells (AKT1 E17K allele), read-out: LAPC4 proliferation IC50. The gist of the method: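 Seed 1,000 cells/well in IMDM/12% FBS/1% P/S; add compound dilutions (DMSO); incubate 72 h; read intracellular ATP with CellTiter Glo; fit luminescence to log(inhibitor)-response Hill curve for IC50.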
Background: ATP-based viability assays read luminescence as a measure of living cells.

The target of a further test is T3, AKT1 E17K (Homo sapiens, UniProt P31749, E17K).
T3 construct: expressed in transfected cells; host or cells: HEK293
T3 sequence (P31749 whole entry E17K): as the sequence (P31749 whole entry) above, with E17K counted along it
Briefly: Live cell AKT1 E17K target engagement by NanoBRET competitive probe displacement. As to conditions: HEK293 cells transfected with kinase-NanoLuciferase fusion, 2 h at 37° C. The gist of the method:
as §1

Like-named read-outs stand apart in the source and are kept apart here.

T1 sequence (P31751 whole entry): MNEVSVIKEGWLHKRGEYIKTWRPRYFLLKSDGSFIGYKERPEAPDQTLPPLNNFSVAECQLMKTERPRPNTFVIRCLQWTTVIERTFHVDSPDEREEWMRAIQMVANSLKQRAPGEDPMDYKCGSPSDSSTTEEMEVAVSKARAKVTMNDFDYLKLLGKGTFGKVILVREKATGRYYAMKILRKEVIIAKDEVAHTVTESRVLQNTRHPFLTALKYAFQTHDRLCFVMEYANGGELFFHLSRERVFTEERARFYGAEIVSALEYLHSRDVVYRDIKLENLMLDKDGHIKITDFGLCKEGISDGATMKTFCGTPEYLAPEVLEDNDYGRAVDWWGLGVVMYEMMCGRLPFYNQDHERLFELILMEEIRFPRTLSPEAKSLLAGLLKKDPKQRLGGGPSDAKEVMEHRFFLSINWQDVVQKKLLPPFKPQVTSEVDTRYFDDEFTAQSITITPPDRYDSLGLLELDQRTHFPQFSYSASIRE

For the molecule `C=CC(=O)N1CCC(N[C@@H]2c3ccc(-n4c(-c5cccnc5N)nc5ccc(-n6ccc(C#N)n6)nc54)cc3CC2F)CC1` (single isomer, unassigned) [Example 312, 1-(3-((1R,2*)-1-((1-acryloylpiperidin-4-yl)amino)-2-fluoro-2,3-dihydro-1H-inden-5-yl)-2-(2-aminopyridin-3-yl)-3H-imidazo[4,5-b]pyridin-5-yl)-1H-pyrazole-3-carbonitrile], the IC50 on AKT2 was 102 nM; on AKT1 WT, 652 nM; in test [1] (72 h) it was 440 nM; at AKT1 E17K it was 11.6 nM.

For `C=CC(=O)N1CCC(N[C@H]2CC(O)c3cc(-n4c(-c5cccnc5N)nc5ccc(-n6cccn6)nc54)ccc32)CC1` (single isomer, unassigned) [Example 219, 1-(4-(((1S,3*)-5-(2-(2-aminopyridin-3-yl)-5-(1H-pyrazol-1-yl)-3H-imidazo[4,5-b]pyridin-3-yl)-3-hydroxy-2,3-dihydro-1H-inden-1-yl)amino)piperidin-1-yl)prop-2-en-1-one], the IC50 at AKT2 worked out at 95.7 nM; on AKT1 WT, 279 nM; in test [1] (72 h) it was 77.1 nM; at AKT1 E17K, 45.8 nM.

`C=CC(=O)N1CCC(N[C@@H]2c3ccc(-n4c(-c5cccnc5N)nc5ccc(-n6cccn6)nc54)cc3CC2F)C[C@H]1C` (single isomer, unassigned) [Example 145, 1-((2R,4*)-4-(((1R,2*)-5-(2-(2-aminopyridin-3-yl)-5-(1H-pyrazol-1-yl)-3H-imidazo[4,5-b]pyridin-3-yl)-2-fluoro-2,3-dihydro-1H-inden-1-yl)amino)-2-methylpiperidin-1-yl)prop-2-en-1-one]: the IC50 stood at 1030 nM on AKT2, 29.7 nM at AKT1 WT, 436 nM in test [1] (72 h) and 187 nM at AKT1 E17K.

In the case of `C=CC(=O)N1CCC(N[C@H]2CCc3cc(-n4c(-c5cccnc5N)nc5ccc(-n6cccn6)nc54)ccc32)c2ccccc21` (single isomer, unassigned) [Example 126, 1-[(4*)-4-{[(1S)-5-[2-(2-aminopyridin-3-yl)-5-(pyrazol-1-yl)imidazo[4,5-b]pyridin-3-yl]-2,3-dihydro-1H-inden-1-yl]amino}-3,4-dihydro-2H-quinolin-1-yl]prop-2-en-1-one], the IC50 on AKT2 was 8570 nM; at AKT1 WT, more than 1000 nM; in test [1] (72 h), 5050 nM; at AKT1 E17K, 671 nM.

Consider `C=CC(=O)N1CCC(N[C@H]2CC(O)c3cc(-n4c(-c5cccnc5N)nc5ccc(-n6cccn6)nc54)ccc32)CC1` (single isomer, unassigned) [Example 218, 1-(4-(((1S,3*)-5-(2-(2-aminopyridin-3-yl)-5-(1H-pyrazol-1-yl)-3H-imidazo[4,5-b]pyridin-3-yl)-3-hydroxy-2,3-dihydro-1H-inden-1-yl)amino)piperidin-1-yl)prop-2-en-1-one], for which the IC50 on AKT2 amounted to 140 nM; at AKT1 WT, 365 nM; in test [1] (72 h) it was 226 nM; on AKT1 E17K, 52.3 nM.

As for `CC#CC(=O)Nc1cccc(C(=O)N[C@H]2CCc3cc(-n4c(-c5cccnc5N)nc5ccc(-n6cccn6)nc54)ccc32)c1` [Example 12, (S)-N-(5-(2-(2-aminopyridin-3-yl)-5-(1H-pyrazol-1-yl)-3H-imidazo[4,5-b]pyridin-3-yl)-2,3-dihydro-1H-inden-1-yl)-3-(but-2-ynamido)benzamide], the IC50 at AKT2 stood at 129 nM; at AKT1 WT it was 11.2 nM; in test [1] (Homo sapiens, LAPC4, 72 h), 343 nM; on AKT1 E17K, 12.9 nM.

On to `C=CC(=O)N1CCN(NC2CCc3cc(-n4c(-c5cccnc5N)nc5ccc(-n6ccc(F)n6)nc54)ccc32)CC1` (single isomer, unassigned) [Example 200, 1-(4-{[(1*)-5-[2-(2-aminopyridin-3-yl)-5-(3-fluoropyrazol-1-yl)imidazo[4,5-b]pyridin-3-yl]-2,3-dihydro-1H-inden-1-yl]amino}piperazin-1-yl)prop-2-en-1-one], for which the IC50 at AKT2 was 80.1 nM; on AKT1 WT it was 281 nM; in test [1] (72 h) it was 317 nM; on AKT1 E17K, 15.9 nM.

As for `C=CC(=O)N1CCC(N[C@@H]2c3ccc(-n4c(-c5cccnc5N)nc5ccc(-n6ccc(C7CC7)n6)nc54)cc3CC2F)CC1` (single isomer, unassigned) [Example 298, 1-(4-(((1R,2*)-5-(2-(2-aminopyridin-3-yl)-5-(3-cyclopropyl-1H-pyrazol-1-yl)-3H-imidazo[4,5-b]pyridin-3-yl)-2-fluoro-2,3-dihydro-1H-inden-1-yl)amino)piperidin-1-yl)prop-2-en-1-one], the IC50 on AKT2 came to 57.3 nM; at AKT1 WT, 294 nM; in test [1] (72 h), 314 nM; on AKT1 E17K, 14.2 nM.

Turning to `C=CC(=O)N1CCC(N(CCOC)[C@H]2CCc3cc(-n4c(-c5cccnc5N)nc5ccc(-n6cccn6)nc54)ccc32)CC1` [Example 74, 1-(4-{[(1S)-5-[2-(2-aminopyridin-3-yl)-5-(pyrazol-1-yl)imidazo[4,5-b]pyridin-3-yl]-2,3-dihydro-1H-inden-1-yl](2-methoxyethyl)amino}piperidin-1-yl)prop-2-en-1-one], the IC50 at AKT2 is 2940 nM; on AKT1 WT, 179 nM; in test [1] (Homo sapiens, LAPC4, 72 h) it was 1630 nM; on AKT1 E17K, more than 1000 nM.

Regarding `C=CC(=O)N1CCc2c(C(=O)N[C@H]3CCc4cc(-n5c(-c6cccnc6N)nc6ccc(-n7cccn7)nc65)ccc43)cccc21` [Example 3, N-[(1S)-5-[2-(2-aminopyridin-3-yl)-5-(pyrazol-1-yl)imidazo[4,5-b]pyridin-3-yl]-2,3-dihydro-1H-inden-1-yl]-1-(prop-2-enoyl)-2,3-dihydroindole-4-carboxamide], the IC50 on AKT2 turned out to be 70 nM; at AKT1 WT, 15.1 nM; in test [1] (Homo sapiens, LAPC4, 72 h) it was 833 nM; at AKT1 E17K, 32.8 nM.

For the molecule `C=CC(=O)N1CCC(N[C@H]2CCc3cc(-n4c(-c5cccnc5N)nc5ccc(-n6cccn6)nc54)ccc32)C(OC)C1` (single isomer, unassigned) [Example 116, 1-((3*,4*)-4-(((S)-5-(2-(2-aminopyridin-3-yl)-5-(1H-pyrazol-1-yl)-3H-imidazo[4,5-b]pyridin-3-yl)-2,3-dihydro-1H-inden-1-yl)amino)-3-methoxypiperidin-1-yl)prop-2-en-1-one], the IC50 was 942 nM on AKT2, 32.1 nM on AKT1 WT, 422 nM in test [1] (72 h) and 339 nM at AKT1 E17K.

Take `C=CC(=O)N1CCC(N[C@H]2CCc3cc(-n4c(-c5cccnc5N)nc5ccc(-n6cccn6)nc54)ccc3C2)CC1` [Example 296, 1-(4-{[(2S)-6-[2-(2-aminopyridin-3-yl)-5-(pyrazol-1-yl)imidazo[4,5-b]pyridin-3-yl]-1,2,3,4-tetrahydronaphthalen-2-yl]amino}piperidin-1-yl)prop-2-en-1-one]: the IC50 worked out at 36.6 nM at AKT2; 93.4 nM at AKT1 WT; 59.1 nM in test [1] (Homo sapiens, LAPC4, 72 h); 33.2 nM at AKT1 E17K.

As to `C=CC(=O)N1CCC(N[C@H]2CCc3cc(-n4c(-c5ccc(F)cc5)nc5ccc(-n6cccn6)nc54)ccc32)CC1` [Example 247, 1-(4-{[(1S)-5-[2-(4-fluorophenyl)-5-(pyrazol-1-yl)imidazo[4,5-b]pyridin-3-yl]-2,3-dihydro-1H-inden-1-yl]amino}piperidin-1-yl)prop-2-en-1-one], the IC50 was 469 nM on AKT2; 3120 nM at AKT1 WT; 1680 nM in test [1] (Homo sapiens, LAPC4, 72 h); 113 nM at AKT1 E17K.

Take `C/C=C/C(=O)N1CCC(N[C@H]2CCc3cc(-n4c(-c5cccnc5N)nc5ccc(-n6cccn6)nc54)ccc32)CC1` [Example 96, (S,E)-1-(4-((5-(2-(2-aminopyridin-3-yl)-5-(1H-pyrazol-1-yl)-3H-imidazo[4,5-b]pyridin-3-yl)-2,3-dihydro-1H-inden-1-yl)amino)piperidin-1-yl)but-2-en-1-one]: the IC50 on AKT2 is 3910 nM; at AKT1 WT, 58 nM; in test [1] (Homo sapiens, LAPC4, 72 h) it was 3650 nM; on AKT1 E17K, more than 1000 nM.

For `C=CC(=O)N1CCC(N[C@H]2CCc3cc(-n4c(-c5cccnc5N)nc5ccc(-c6ncco6)nc54)ccc32)CC1` [Example 109, (S)-1-(4-((5-(2-(2-aminopyridin-3-yl)-5-(oxazol-2-yl)-3H-imidazo[4,5-b]pyridin-3-yl)-2,3-dihydro-1H-inden-1-yl)amino)piperidin-1-yl)prop-2-en-1-one], the IC50 on AKT2 was 454 nM; at AKT1 WT, 24.9 nM; in test [1] (Homo sapiens, LAPC4, 72 h), 3160 nM; on AKT1 E17K, 124 nM.

`C=C(F)C(=O)Nc1ccccc1C(=O)N[C@H]1CCc2cc(-n3c(-c4cccnc4N)nc4ccc(-n5nccn5)nc43)ccc21` [Example 23, (S)-N-(5-(2-(2-aminopyridin-3-yl)-5-(2H-1,2,3-triazol-2-yl)-3H-imidazo[4,5-b]pyridin-3-yl)-2,3-dihydro-1H-inden-1-yl)-2-(2-fluoroacrylamido)benzamide]: the IC50 turned out to be 2250 nM at AKT2; 50.1 nM on AKT1 WT; 426 nM in test [1] (Homo sapiens, LAPC4, 72 h); 135 nM on AKT1 E17K.

In the case of `C=C(C)C(=O)Nc1ccccc1C(=O)N[C@H]1CCc2cc(-n3c(-c4cccnc4N)nc4ccc(-n5cccn5)nc43)ccc21` [Example 17, (S)-N-(5-(2-(2-aminopyridin-3-yl)-5-(1H-pyrazol-1-yl)-3H-imidazo[4,5-b]pyridin-3-yl)-2,3-dihydro-1H-inden-1-yl)-2-methacrylamidobenzamide], the IC50 came out at 1020 nM at AKT2; 43 nM at AKT1 WT; 2330 nM in test [1] (Homo sapiens, LAPC4, 72 h); 146 nM at AKT1 E17K.

The record behind these values is patent US12570655B2, “Cysteine covalent modifiers of AKT1 and uses thereof” (Terremoto Biosciences, Inc., priority 2023, dated 2026).
